# Patent US20160030510A1, “METHODS OF TREATING ALZHEIMER'S DISEASE AND OTHER TAUOPATHIES WITH INHIBITORS OF MICROTUBULE AFFINITY REGULATING KINASE” (The Board of Trustees of the Leland Stanford Junior …, priority 2012, published 2016)
# Where a SMILES comes first, the peptide text is derived from it. Where no end group is shown, it is not given here.
# Key:
# [1] = target: T1, Human MARK4 (Homo sapiens, UniProt Q96L34); assay: In vitro kinase assay of MARK4 phosphorylating tau (Western blot); format: biochemical; conditions: human MARK4 and tau affinity-purified from HEK293 cells, FIG. 7
# T1 construct: made in house; host or cells: HEK293 cells
# T1 sequence (Q96L34 1-752): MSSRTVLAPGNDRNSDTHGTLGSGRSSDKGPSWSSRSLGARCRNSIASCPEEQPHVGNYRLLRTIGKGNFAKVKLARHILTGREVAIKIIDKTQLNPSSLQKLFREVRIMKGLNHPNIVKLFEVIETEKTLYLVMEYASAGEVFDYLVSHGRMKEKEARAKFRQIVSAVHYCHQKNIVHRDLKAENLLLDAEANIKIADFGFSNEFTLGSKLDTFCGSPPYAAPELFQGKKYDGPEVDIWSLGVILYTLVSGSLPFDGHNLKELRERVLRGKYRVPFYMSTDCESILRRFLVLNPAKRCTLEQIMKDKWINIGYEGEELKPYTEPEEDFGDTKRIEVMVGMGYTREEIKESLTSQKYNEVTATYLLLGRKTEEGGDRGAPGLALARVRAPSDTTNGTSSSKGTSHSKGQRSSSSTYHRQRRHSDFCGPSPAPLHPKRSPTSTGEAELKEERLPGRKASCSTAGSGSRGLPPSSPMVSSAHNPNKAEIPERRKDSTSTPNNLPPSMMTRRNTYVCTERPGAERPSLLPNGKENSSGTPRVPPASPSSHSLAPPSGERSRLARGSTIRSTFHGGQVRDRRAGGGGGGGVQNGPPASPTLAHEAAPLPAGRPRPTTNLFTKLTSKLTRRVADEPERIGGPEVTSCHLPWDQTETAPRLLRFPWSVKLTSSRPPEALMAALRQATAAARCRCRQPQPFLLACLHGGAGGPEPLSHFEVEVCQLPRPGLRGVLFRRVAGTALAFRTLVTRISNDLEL
# Text: Both human MARK4 and tau proteins were expressed in HEK293 cells and affinity-purified by immunoprecipitation. After in vitro kinase reaction in the presence or absence of the peptides, the reaction mixtures were separated on SDS-PAGE to separate the proteins, and the levels of total tau and phospho-tau generated by MARK4 were detected by Western blot analysis. The TAT peptide was used as a negative control. Note the inhibition of MARK4-mediated tau phosphorylation by both TAT-MKI and MKI-TAT.
# We next tested the ability of the TAT-MKI and MKI-TAT fusions to inhibit the activity of MARK4 kinase in phosphorylating the tau protein (FIG. 7). Human MARK4 and tau proteins were expressed in HEK293 cells and affinity-purified by immunoprecipitation. In vitro kinase reactions were performed in the presence or absence of the TAT-MKI and MKI-TAT fusion peptides and the levels of total tau and phospho-tau generated by MARK4 were detected by Western blot analysis. The TAT peptide was used as a negative control. Both the TAT-MKI and MKI-TAT fusion peptides inhibited MARK4-mediated tau phosphorylation in vitro.
# [2] = system: Aβ-induced spine loss; conditions: Zempel et al. (2010); cited from earlier work
# [3] = system: AMP-activated kinase (AMPK); assay: AMPK kinase activity in neurons detected with phospho-acetyl-CoA carboxylase (Ser79) antibody; format: cell-based, rat; conditions: specificity control; pACC antibody, FIG. 3C
# [4] = system: rat hippocampal neurons; assay: Aβ oligomer-induced synaptic and dendritic spine defects in hippocampal neurons (morphology); format: cell-based; conditions: 5 μM Aβ oligomer-treated neurons
# Experimental: FIGS. 4A-4C show the effects of MKI-EGFP on Aβ-induced loss of PSD-95 (FIG. 4A) and GluR1 (FIG. 4B) clusters and spine numbers. Neurons transfected with MKI-EGFP or EGFP were treated with Aβ oligomer or mock-treated with solvent as control. The cytoplasmic GFP signals allowed detection of dendritic spines, and PSD-95 or GluR1 clusters were detected by immunostaining. Quantification of data is shown in (FIG. 4C) (***P<0.001 in Student's t-test). […] Summary graphs from four to six culture sets plotting normalized mEPSC frequency and mEPSC amplitude are shown beneath the traces. Scale bar, 5 μm.
# (§1) Rat E18 hippocampal neuron primary cultures were prepared as described (Yu et al. (2011) Hum. Mol. Genet. 20:3227-3240, herein incorporated by reference in its entirety). Cultured neurons, grown for 10-days in vitro in 12-well plates, were transfected with 2-3 μg of plasmid per well using a CalPhos Mammalian Transfection Kit (Clontech, San Jose, Calif., USA). Fluorescence immunocytochemistry was performed 3 days after transfection. Preparation and concentration of lentiviral particles were performed as described before (Yu et al., supra). Viral transfection of hippocampal neurons was carried out at 10 days after in vitro culture. The next day, the culture medium was replaced with 50% fresh medium and 50% conditioned medium.
# Commercial Aβ-42 peptide was purchased from rPeptide (Bogart, Ga., USA). […]
# (§2) Chicken anti-EGFP (1:4000) and rabbit anti-HA (1:3000) antibodies were purchased from Abcam (Cambridge, Mass., USA); mouse anti-Myc (1:1500, 4A6) and mouse anti-PSD-95 (1:300) from Millipore (Billerica, Mass., USA); rabbit anti-GluR1 (1:200) from Calbiochem (San Diego, Calif., USA) and rabbit anti-Synapsin I (1:1000) from Sigma (St Louis, Mo., USA). […] Dendritic spine number and clusters of PSD-95, GluR1 or Synapsin I were manually counted as the number along a 10 μm length of dendrite and presented as mean±SEM. […] Between 15 and 30 dendritic processes were selected for quantification. Data were analyzed while blind to the conditions.
# [5] = system: PAR-1/MARK-mediated tau phosphorylation; assay: Tau phosphorylation in transfected rat hippocampal neurons (western blot / immunostaining with 12E8 and PHF-1 antibodies); format: cell-based
# Experimental: (§3) Robust 12E8 staining (gray) is seen in EGFP-transfected control neurons. Total tau is stained with anti-HA (gray). […] EGFP-transfected neurons served as control. […] Data quantification is shown in (3E) (***P<0.001 in Student's t-test). Scale bar, 10 μm.
# as §1
# EGFP-tagged PSD-95-WT in the FHUGW lentivirus vector was described before (Xu et al. (2008) Neuron 57:248-262). The S561A mutation was introduced by site-directed mutagenesis. Tau S2A mutations were introduced as described before (Nishimura et al. Cell, 116:671-682), and subcloned into FHUGW with a C-terminal HA tag. EGFP- and HA-tagged human MARK4 constructs were obtained from Dr. Gerard Drewes. MKI cDNA was obtained from Dr. C. […]
# as §2
# [6] = system: rat hippocampal neurons; format: cell-based; conditions: FIG. 4D
# [7] = system: rat hippocampal neurons; assay: MARK4 overexpression-induced synaptic and spine toxicity in hippocampal neurons; format: cell-based
# Experimental: as §3, §1
# Chicken anti-EGFP (1:4000) and rabbit anti-HA (1:3000) antibodies were purchased from Abcam (Cambridge, Mass., USA); mouse anti-Myc (1:1500, 4A6) and mouse anti-PSD-95 (1:300) from Millipore (Billerica, Mass., USA); rabbit anti-GluR1 (1:200) from Calbiochem (San Diego, Calif., USA) and rabbit anti-Synapsin I (1:1000) from Sigma (St Louis, Mo., USA). Immunofluorescence analysis was done essentially as described before (Yu et al., supra). Confocal images were obtained using a Leica TCS SP5 confocal microscope or Zeiss inverted LSM510 confocal microscope (Carl Zeiss, Inc.) with 63× NA 1.4 objectives. Processed confocal images were used to make 2D projections. Dendritic spine number and clusters of PSD-95, GluR1 or Synapsin I were manually counted as the number along a 10 μm length of dendrite and presented as mean±SEM. Each experiment was done at least three times and six to nine neurons were randomly selected for analysis each time. Between 15 and 30 dendritic processes were selected for quantification. Data were analyzed while blind to the conditions.
# [8] = system: all MARKs; conditions: Nesic et al. (2010); cited from earlier work
molecule,measurement,setting,value
CC(=O)N[C@@H](Cc1ccc(O)cc1)C(=O)NCC(=O)N[C@@H](CCCNC(=N)N)C(=O)N[C@@H](CCCCN)C(=O)N[C@@H](CCCCN)C(=O)N[C@@H](CCCNC(=N)N)C(=O)N[C@@H](CCCNC(=N)N)C(=O)N[C@@H](CCC(N)=O)C(=O)N[C@@H](CCCNC(=N)N)C(=O)N[C@@H](CCCNC(=N)N)C(=O)N[C@@H](CCCNC(=N)N)C(=O)NCC(=O)NCC(=O)N[C@@H](Cc1ccccc1)C(=O)N1CCC[C@H]1C(=O)N[C@@H](CC(C)C)C(=O)N[C@@H](CCCCN)C(=O)N[C@@H](CCCNC(=N)N)C(=O)N[C@@H](Cc1c[nH]cn1)C(=O)N[C@@H](CC(=O)O)C(=O)NCC(=O)N[C@H](C(=O)N[C@@H](CC(=O)O)C(=O)N[C@@H](CC(=O)O)C(=O)N[C@@H](CC(C)C)C(=O)N[C@@H](CO)C(=O)N[C@@H](CCCCN)C(=O)N[C@H](C(=O)NCC(N)=O)C(C)C)C(C)C [TAT-MKI] (Ac-YGRKKRRQRRRGGFPLKRHDGVDDLSKVG-NH2),MARK4-mediated tau phosphorylation in vitro,[1],inhibited
CC(=O)O[C@H]1C(=O)[C@@]2(C)[C@H]([C@H](OC(=O)c3ccccc3)[C@]3(O)C[C@H](OC(=O)[C@H](O)[C@@H](NC(=O)c4ccccc4)c4ccccc4)C(C)=C1C3(C)C)[C@]1(OC(C)=O)CO[C@@H]1C[C@@H]2O [taxol],Aβ-induced spine loss,[2],preventable
"MKI-EGFP: MKI cDNA subcloned into FHUGW lentivirus vector with a C-terminal EGFP tag, expressed in rat hippocampal neurons (FPLKRHDKVDDLSK; not fully specified (C-terminus))",phosphorylation of acetyl-CoA carboxylase (ACC) by AMP-activated kinase (AMPK),[3],did not affect
same,Aβ-caused reduction in the density of PSD-95 puncta,[4]; FIGS. 4A and 4C,effectively blocked
same,Aβ-caused loss of dendritic spines,[4]; FIGS. 4A-4C,effectively blocked
same,Aβ-caused reduction in the density of GluR1 puncta,[4]; FIGS. 4B and 4C,effectively blocked
same,MARK4-mediated phosphorylation of transfected human tau at the 12E8 sites,"[5]; HA-tagged h-tau-WT in rat hippocampal neurons, immunostaining, FIG. 3B",effectively attenuated
same,MARK4-mediated phosphorylation of endogenous tau at the 12E8 sites,"[5]; expressed in rat hippocampal neurons, western blot, FIG. 3A",effectively attenuated
same,reduction of mEPSC frequency caused by Aβ,"[6]; Aβ-treated neurons, held at −70 mV",effectively rescued
same,mEPSC amplitude in neurons expressing inhibitor alone,[6]; no Aβ (mock-treated),not amplitude
same,mEPSC frequency in neurons expressing inhibitor alone,[6]; no Aβ (mock-treated),reduced mEPSC frequency
same,MARK4 overexpression-induced reduction of GluR1 puncta density,[7]; FIG. 3E,effectively blocked
same,MARK4 overexpression-induced reduction of PSD-95 puncta density,[7]; FIG. 3E,effectively blocked
same,MARK4 overexpression-induced spine loss,"[7]; co-expression in rat hippocampal neurons, FIGS. 3D and 3E",effectively blocked
"MKI: peptide inhibitor (SEQ ID NO:1) derived from the CagA protein of Helicobacter pylori, binds substrate-binding sites of all MARKs (FPLKRHDKVDDLSK)",Phosphorylation of tau at the PHF-1 site,"[5]; rat hippocampal neurons, western blot, FIG. 3A",reduced
same,binding to the substrate-binding sites of all MARKs,[8],specifically bind with high affinity
